Results on 10 compounds are retold here after patent publication US9221802B2, “Arylethynyl derivatives” (Hoffmann-La Roche Inc., priority 2012, dated 2015).

SMILES strings stand for the structures. Where two headings read alike, the source gives them in different places.

The target in one series is human mGlu5a receptor (Homo sapiens (Human), UniProt P41594). The series is described as follows: Intracellular Ca2+ mobilization assay. The class given is cell-based. The following applies: for EC50: HEK-293 cells expressing human mGlu5a; for Emax: maximal response in % of maximal stimulatory effect of saturating L-glutamate, read-out: Efficacy [%]. As to the method: A monoclonal HEK-293 cell line stably transfected with a cDNA encoding for the human mGlu5a receptor was generated; for the work with mGlu5 Positive Allosteric Modulators (PAMs), a cell line with low receptor expression levels and low constitutive receptor activity was selected to allow the differentiation of agonistic versus PAM activity. Cells were cultured according to standard protocols (Freshney, 2000) in Dulbecco's Modified Eagle Medium with high glucose supplemented with 1 mM glutamine, 10% (vol/vol) heat-inactivated bovine calf serum, Penicillin/Streptomycin, 50 μg/ml hygromycin and 15 μg/ml blasticidin (all cell culture reagents and antibiotics from Invitrogen, Basel, Switzerland).
About 24 hrs before an experiment, 5×10^4 cells/well were seeded in poly-D-lysine coated, black/clear-bottomed 96-well plates. The cells were loaded with 2.5 μM Fluo-4AM in loading buffer (1×HBSS, 20 mM HEPES) for 1 hr at 37° C. and washed five times with loading buffer. The cells were transferred into a Functional Drug Screening System 7000 (Hamamatsu, Paris, France), and 11 half logarithmic serial dilutions of test compound at 37° C. were added and the cells were incubated for 10-30 min. with on-line recording of fluorescence. Following this pre-incubation step, the agonist L-glutamate was added to the cells at a concentration corresponding to EC20 (typically around 80 μM) with on-line recording of fluorescence; in order to account for day-to-day variations in the responsiveness of cells, the EC20 of glutamate was determined immediately ahead of each experiment by recording of a full dose-response curve of glutamate. Responses were measured as peak increase in fluorescence minus basal (i.e. fluorescence without addition of L-glutamate), normalized to the maximal stimulatory effect obtained with saturating concentrations of L-glutamate. Graphs were plotted with the % maximal stimulatory using XLfit, a curve fitting program that iteratively plots the data using Levenburg Marquardt algorithm. The single site competition analysis equation used was y=A+((B−A)/(1+((x/C)D))), where y is the % maximal stimulatory effect, A is the minimum y, B is the maximum y, C is the EC50, x is the log 10 of the concentration of the competing compound and D is the slope of the curve (the Hill Coefficient). From these curves the EC50 (concentration at which half maximal stimulation was achieved), the Hill coefficient as well as the maximal response (=Efficacy) in % of the maximal stimulatory effect obtained with saturating concentrations of L-glutamate were calculated.
A depression of the signal observed after addition of the EC20 concentration of L-glutamate was indicative of an inhibitory activity of the test compound.
The Intracellular Ca^2+ mobilization assay as described before was used for determination of EC50 values.
A general note: Calcium assays in cells follow changes in intracellular calcium, usually with a dye or a luminescent sensor.

Series [1] is described as follows: Glutathione (GSH) addition assay after metabolic activation. The class given is in vitro ADME, human. On the set-up: key: Samples for which the mass of a covalent adduct to a reactive metabolite was clearly detected are indicated as FLAG (positive); Compounds for which no adduct was detected are designated NO FLAG (negative). The following applies: glutathione adduct detection after metabolic activation. The procedure:
The assay conditions for the detection of glutathione conjugates follow the procedure described by C. M. Dieckhaus et al. in Chem. Res. Toxicol., 18, 630-638 (2005). Samples for which the mass of a covalent adduct to a reactive metabolite was clearly detected are indicated as FLAG (positive). Compounds for which no adduct was detected are designated NO FLAG (negative).
The “gold standard” CVB (covalent binding) assay, which detects the formation of covalent adducts by incubation of test compounds with human liver microsomes (HLM) needs to be conducted with 14C-labelled material. This is not appropriate for routine screening purposes. The glutathione assay after metabolic activation (see assay description) is appropriate for routine screening, and compounds that show significant activity in this assay are very likely to show activity in the CVB assay. […] Generally speaking, compounds of the present invention therefore have a clear advantage with respect to drug safety due to their much less pronounced tendency to form reactive metabolites compared to structurally similar compounds of prior art.

Where [2] appears, read: PAM activity in presence of EC20 L-glutamate, read-out: Ec50.
Setting [3] is: PAM activity, read-out: EC50 (nM) mGlu5 PAM.

human mGlu5a receptor, sequence (P41594 other isoform, or with tags, fused parts or gaps): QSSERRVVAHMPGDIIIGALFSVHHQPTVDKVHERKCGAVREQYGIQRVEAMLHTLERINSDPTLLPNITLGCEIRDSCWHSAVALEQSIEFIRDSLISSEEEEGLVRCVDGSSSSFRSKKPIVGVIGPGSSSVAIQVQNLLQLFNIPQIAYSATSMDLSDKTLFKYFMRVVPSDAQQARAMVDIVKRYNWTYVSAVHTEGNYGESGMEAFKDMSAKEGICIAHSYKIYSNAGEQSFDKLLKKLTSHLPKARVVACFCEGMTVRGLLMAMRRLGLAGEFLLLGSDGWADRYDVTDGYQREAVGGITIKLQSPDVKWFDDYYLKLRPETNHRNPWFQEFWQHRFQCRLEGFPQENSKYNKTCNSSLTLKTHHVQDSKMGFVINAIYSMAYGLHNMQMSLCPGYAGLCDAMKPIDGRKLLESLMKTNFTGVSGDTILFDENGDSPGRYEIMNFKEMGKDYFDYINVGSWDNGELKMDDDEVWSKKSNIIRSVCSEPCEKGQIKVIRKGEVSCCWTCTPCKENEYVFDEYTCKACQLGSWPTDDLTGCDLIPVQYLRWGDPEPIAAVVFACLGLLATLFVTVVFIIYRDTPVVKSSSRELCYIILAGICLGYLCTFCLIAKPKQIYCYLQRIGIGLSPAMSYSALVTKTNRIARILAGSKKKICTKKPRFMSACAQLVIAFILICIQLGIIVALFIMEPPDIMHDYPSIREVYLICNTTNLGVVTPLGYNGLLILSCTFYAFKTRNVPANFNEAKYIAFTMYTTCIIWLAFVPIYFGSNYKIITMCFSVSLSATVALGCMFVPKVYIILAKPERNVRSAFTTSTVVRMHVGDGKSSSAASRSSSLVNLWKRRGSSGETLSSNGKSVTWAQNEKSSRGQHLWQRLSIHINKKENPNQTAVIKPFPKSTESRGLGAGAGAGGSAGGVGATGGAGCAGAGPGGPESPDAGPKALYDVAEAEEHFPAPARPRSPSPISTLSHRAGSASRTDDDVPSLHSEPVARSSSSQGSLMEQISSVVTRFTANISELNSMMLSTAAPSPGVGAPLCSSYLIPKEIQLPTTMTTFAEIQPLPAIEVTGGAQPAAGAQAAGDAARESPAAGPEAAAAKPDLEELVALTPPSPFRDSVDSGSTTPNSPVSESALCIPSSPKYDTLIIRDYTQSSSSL

As usually defined, the EC50 is the concentration giving half of the maximal effect. For the compound `O=C1OC[C@H]2CCC[C@H]2N1c1ccc(C#Cc2cccc(F)c2)cn1` [Ex. 2, (4aS,7aR)-1-[5-(3-Fluorophenylethynyl)-pyridin-2-yl]-hexahydro-cyclopenta[d][1,3]oxazin-2-one], the EC50 on human mGlu5a receptor (setting [2]) and at human mGlu5a receptor (setting [3]) was 10 nM throughout. Moreover, the Emax at human mGlu5a receptor was 43%. Further, the “GSH [HLM]” value in series [1] is reported as “NO FLAG”.

Take `O=C1OC[C@H]2CCC[C@H]2N1c1ccc(C#Cc2ccccc2)cn1` [Ex. 1, (4aS,7aR)-1-(5-Phenylethynyl-pyridin-2-yl)-hexahydro-cyclopenta[d][1,3]oxazin-2-one]: the EC50 on human mGlu5a receptor (setting [2]) and on human mGlu5a receptor (setting [3]) was 22 nM in each case. Further, on human mGlu5a receptor, the Emax was 38%. The “GSH [HLM]” value in series [1] is “NO FLAG”.

Consider `O=C1O[C@H]2CCC[C@H]2CN1c1ccc(C#Cc2ccccc2)cn1` [Ref. Ex. 103], for which the EC50 at human mGlu5a receptor (setting [2]) came to 27 nM. The Emax at human mGlu5a receptor was determined as 123%. Further, the “GSH [HLM]” value in series [1] is recorded as “FLAG”.

For `CC1(C)CCN(c2ccc(C#Cc3cccc(F)c3)cn2)C(=O)O1` [Ref. Ex. 76], the EC50 on human mGlu5a receptor (setting [2]) turned out to be 13 nM. In addition, the Emax at human mGlu5a receptor amounted to 124%. Also, in series [1], the “GSH [HLM]” value is reported as “FLAG”.

For `CC1(C)COC(=O)N(c2ccc(C#Cc3ccccc3)cn2)C1` [Ref. Ex. 20], on human mGlu5a receptor (setting [2]), the EC50 stood at 27 nM. Besides, the Emax at human mGlu5a receptor worked out at 135%.

As to `O=C1OC[C@H]2CCC[C@H]2N1c1ccc(C#Cc2ccc(F)cc2)cn1` [Ex. 3, (4aS,7aR)-1-[5-(4-Fluorophenylethynyl)-pyridin-2-yl]-hexahydro-cyclopenta[d][1,3]oxazin-2-one], the EC50 on human mGlu5a receptor (setting [2]) and at human mGlu5a receptor (setting [3]) was 10 nM each time. Further, the Emax at human mGlu5a receptor came out at 40%. The “GSH [HLM]” value in series [1] is listed as “NO FLAG”.

Take `CC1(C)CCN(c2ccc(C#Cc3ccccc3)cn2)C(=O)O1` [Ref. Ex. 72]: the EC50 at human mGlu5a receptor (setting [2]) was 10 nM. Also, the Emax at human mGlu5a receptor was 86%. Moreover, the “GSH [HLM]” value in series [1] is recorded as “FLAG”.

As to `O=C1OC[C@H]2CCC[C@H]2N1c1ccc(C#Cc2cc(F)ccc2F)cn1` [Ex. 4, (4aS,7aR)-1-[5-(2,5-Difluorophenylethynyl)-pyridin-2-yl]-hexahydro-cyclopenta[d]-[1,3]oxazin-2-one], the 50% effective concentration (EC50) at human mGlu5a receptor (setting [2]) and on human mGlu5a receptor (setting [3]) was 15 nM throughout. Besides, the Emax on human mGlu5a receptor is 35%. For the same compound, the “GSH [HLM]” value in series [1] is given as “NO FLAG”.

With `CC1(C)CCN(c2ccc(C#Cc3cc(F)ccc3F)cn2)C(=O)O1` [Ref. Ex. 81], the EC50 at human mGlu5a receptor (setting [2]) turned out to be 12 nM. Further, the Emax at human mGlu5a receptor was found to be 95%. In addition, the “GSH [HLM]” value in series [1] is listed as “FLAG”.

As for `CC1(C)CCN(c2ccc(C#Cc3ccc(F)cc3)cn2)C(=O)O1` [Ref. Ex. 79], the EC50 on human mGlu5a receptor (setting [2]) came out at 22 nM. Moreover, the Emax on human mGlu5a receptor amounted to 85%. The “GSH [HLM]” value in series [1] is “FLAG”.
